Measured values as given in patent US20120148695A1, “Pharmaceutical Compositions From Carapa Guianensis” (priority 2004, published 2012).
“Also recorded” adds a separate entry of the source.

How the values were obtained:
[1] = tested on: edema of paw induced by PAF; assay: edema of paw induced by platelet activation factor (PAF); format: in vivo, Swiss mice; settings: WEB 2170 16 mg/Kg oral; PAF 1 μg/paw
Experimental: Swiss mice were stimulated through intraplant injection of 1 μg/paw of platelet activation factor (PAF) in one of the rear paws at the volume of 50 μL/paw. In the counter-lateral paw the same volume of vehicle injected (sterile saline free of pyrogens). The stimulus was performed in non-treated animals and animals pre-treated with 16 mg/Kg of antagonist to PAF WEB 2170 (p.o., 100 μL). Thirty minutes after the stimulus, the edema was analyzed by the digital plethysmograph, through the displacement of fluid (0.5 g NaCl; 3 mL Extran 100%/1 L) produced by insertion of each paw in the measurement tray. Each analysis was performed 3 times.

[2] = tested on: edema of paw induced by carrageenin; assay: edema of paw induced by carrageenin; format: in vivo, Swiss mice; settings: diclophenac 100 mg/Kg oral; carrageenin 300 μg/paw
Experimental: (§1) The animals were stimulated through intraplant injection of stimulus (zimosan or carrageenin) in one of rear paws with the volume of 50 μL/paw. Doses used were: 500 μg/paw of zimosan and 300 μg/paw of carrageenin. In the counter-lateral the same volume of vehicle was injected (sterile saline free of pyrogens). Four hours after the stimulus, the edema was analyzed at the digital plethysmograph, through of displacement of fluid (0.5 g NaCl; 3 mL Extran 100%/1 L) produced by insertion of each paw in the measurement tray. Each Analysis was performed 3 times.

[3] = tested on: edema of paw induced by zimosan; assay: edema of paw induced by zimosan; format: in vivo, Swiss mice; settings: diclophenac 100 mg/Kg oral; zimosan 500 μg/paw
Experimental: as §1

[4] = tested on: pleurisis induced by carrageenin; assay: pleurisis induced by carrageenin; format: in vivo, Swiss mice; settings: diclophenac 100 mg/Kg p.o.; 4 h
Experimental: Pleurisis was induced through intra-thoracic injection (i.t) of carrageenin (300 μg/cavity) at the final volume of 100 μL (Henriques and col., 1991). The control group received 100 μL of vehicle (sterile saline). Four hours after the stimulus, the animals were sacrificed in of CO2 chamber, their thoracic pleural were exposed and washed with phosphate tampon (PBS) heparinized (20 UI/mL). The pleural cavity of the animals was washed with the help of an automatic pipette, at the volume of 1 mL. The pleural wash was collected and centrifuged (740 g, 10 minutes) to remove cells for posterior evaluation of the proteic exudation, as described as follows. Mice were previously injected intravenously at their orbital plexus with Evans blue 1% (25 mg/Kg), and a proteic exudation was evaluated through of overflowing of Evans blue, through spectrophotometer at λ 600 nm. The concentration of Evans blue was determined comparing the optical density (D.O.) of washes with a pattern curve of Evans blue (of 25.6 a 0.2 μg/mL). Results were expressed as μg/mL of Evans blue. The count of the number of total leucocytes in the pleural wash was made with the help of a Neubauer chamber as of a quota removed from the pleural wash, diluted 40 times in Turk liquid for the lise of erythrocytes. […] Results are expressed as number of cells (×10^6) by cavity.

[5] = tested on: hyperalgesia induced by carrageenin; assay: hyperalgesia induced by carrageenin (hot plate); format: in vivo, Wistar rats; settings: dipyrone 100 mg/Kg p.o.
Experimental: (§2) The […] activity was evaluated through an essay of hyperalgesia, performed in a heated plate (Hot Plate, Ugo Basile-Italia model DS-37), with male Wistar rats. The essay is performed through placement of the animals on the hot plate, limited by an acrylic dome of approximately 18 cm in diameter by 40 cm in height.
The induction of hyperalgesic state was performed through the intraplant injection of 800 μg/paw of carrageenin in Wistar rats in one of the rear paws, at the final volume of 100 μL/paw. In the counter-lateral paw the same volume of vehicle (sterile saline free of pyrogens) was injected. The stimulus was performed in animals non-treated and in animals pre-treated with dipyrone (100 mg/Kg, p.o.). Three hours after the stimulus, the animals were placed in a hot plate at 52.5±0.5° C., and two chronometers are set to record the latency of response of withdrawal of each rear paw. Results were expressed in terms of variation of latency of withdrawal of left and right side paws, measured in seconds.

[6] = tested on: pleural exudation induced by histamine; assay: pleurisy induced by histamine, pleural exudation (Evans blue); format: in vivo, Swiss mice; settings: promethazine 30 mg/Kg p.o.; histamine 100 μg/cavity
Experimental: The pleurisy was induced through intra-thoracic injection (i.t) of histamine (100 μg/cavity) at the final volume of 100 μL. The control group received 100 μL of vehicle (sterile saline). One hour after the stimulus, the animals were sacrificed in a chamber CO2, their thoracic cavities were exposed and washed with phosphate tampon (PBS) heparinized (20 UI/mL). The pleural cavity of the animals was washed with the help of an automatic pipette, with volumes of 1 and 3 mL for mice and rats, respectively. The pleural wash was collected and centrifuged (740 g, 10 minutes) to remove the cells for posterior evaluation of the proteic exudation, as described as follows. In experiences made with mice, they were previously intravenously injected with Evans blue 1% (25 mg/Kg), at the orbital plexus and the proteic exudation was evaluated through overflow of Evans blue, through spectrophotometer at λ 600 nm. The concentration of Evans blue was determined comparing the optical density (D.O.) of washes with a pattern curve of Evans blue (of 25.6 a 0.2 μg/mL). Results were expressed as μg/mL of Evans blue. For analysis in rats, the exudation of pleural wash was evaluated by the measure of the volume collected from the cavity with the help of a graded syringe and the overflow of proteins was evaluated by the quantification of proteins at the supernatant by the method of Lowry (Lowry et al., 1951). […]

[7] = tested on: ear edema induced by histamine; assay: edema of ear induced by histamine (Evans blue); format: in vivo, mice; settings: promethazine 10 mg/Kg p.o.; 30 minutes
Experimental: The ear edema was induced in anesthetized mice (pentobarbital 40 mg/kg, via intravenous, i.v.) with an intravenous injection (i.v.) in the orbital plexus of Evans blue 1% (25 mg/Kg), 24 hours before the stimulus. […] Thirty minutes after the stimulus, the animals were sacrificed in the chamber of CO2, and their ears were removed and placed in formamide (500 μL/ear) for 24 hours for the extraction of Evans blue. The concentration of Evans blue in the supernatant was analyzed through spectrophotometer (SpectraMax®) at λ 600 nm. The concentration of Evans blue is determined comparing the optical density é (D.O.) of a pattern curve (from 25.6 to 0.2 μg/mL).
(§3) The treatments with oil or tetranortriterpenoids were performed orally (p.o) 1 hour before the stimulation in conscious animals, kept in a previous fasting of 12 hours with free access to water. The treatment solutions were administered with the help of a curve needle with spherical end, with volumes of 200 μL or 400 μL for mice (of 25 g) or rats (of 200 g). The doses used were 200 or 400 mg/Kg for mice and 150 or 300 mg/Kg for rats. The tetranortriterpenoids were administered in doses of 12.5; 25; 50; 100 and 200 mg/Kg. […]

[8] = tested on: hyperalgesia induced by histamine; assay: hyperalgesia induced by histamine (hot plate); format: in vivo, Wistar rats; settings: promethazine 30 mg/Kg p.o.
Experimental: as §2
The induction of a hyperalgesic state was performed through intraplant injection of 100 μg/paw of histamine in Wistar rats in one of the rear paws, at the final volume of 100 μL/paw. In the counter-lateral paw the same volume of vehicle (sterile saline free of pyrogens) was injected. The stimulus was performed in animals non-treated and in animals pre-treated with promethazine (30 mg/Kg, p.o.). Thirty minutes after the stimulus, the animals were placed in a hot plate at 52.5±0.5° C., and two chronometers are set to record the latency of response of withdrawal of each rear paw. Results were expressed in terms of variation of latency of withdrawal of left and right side paws, measured in seconds.
The induction of a hyperalgesic state was performed through intraplant injection of 100 μg/paw of histamine in Wistar rats in one of the rear paws, at a final volume of 100 μL/paw. […] Results were expressed in terms of variation of latency of withdrawal of left and right side paws, measured in seconds.

[9] = tested on: edema of paw induced by egg albumin in sensitized mice; assay: allergic edema of paw induced by egg albumin, oral pre-treatment; format: in vivo, Swiss mice; settings: promethazine 30 mg/Kg oral, 1 h before, egg albumin 3 μg/paw
Experimental: This essay was made in animals previously sensitized through an subcutaneous injection (s.c.) in the dorsal region with 200 μL of a suspension containing 50 μg of egg albumin+5 mg (Al(OH)3) diluted in sterile saline free or pyrogens (200 μL/animal). The edema of paw was induced by an intraplant paw injection of egg albumin (3 μg/paw, no final volume of 50 μL) in one of the back paws, fourteen days after sensitization. The counter-lateral paw received an injection with the same volume of the vehicle (solution saline). The edema was analyzes in a digital plethysmograph, through the displacement of fluid (0.5 g NaCl; 3 mL Extran 100%/1 L) produced by the insertion of the paw in test in the measurement tray. Each analysis was performed 3 times. […]
For evaluation of the anti-allergenic activity of the oil of Carapa guianensis, the dosages of 200 and 400 mg/Kg were tested for mice and 150 and 300 mg/Kg for rats, depending on the model tested. […] The results were expressed as mean and pattern error of the mean and (AND.P.M.), and statistically analyzed through the analysis of the variance (ANOVA), followed by test of multiple comparisons of Newman-Kewls, or T of Student test with a level of significance minor or equal to 0.05 (p≦0.05).

[10] = tested on: edema of paw induced by histamine; assay: edema of paw induced by histamine, oral pre-treatment; format: in vivo, Swiss mice; settings: mice; promethazine 30 mg/Kg p.o.
Experimental: The animals were stimulated through interplant injection of stimulus (histamine, bradikinin and PAF—platelet-activating factor) in one of the rear paws with volumes of 50 or 100 μL/paw for mice or rats, respectively. The dosages used were: 100 μg/paw of histamine, 10 nmol/paw of bradykinin and 1 μg/paw of PAF (we notice that only bradykinin was injected in a volume of 50 μL). On the counter-lateral side of the paw the same volume of the vehicle (saline sterile free of pyrogen). Thirty minutes or one hour after the stimulus, the edema was analyzed at the digital plethysmograph, through of displacement of fluid (0.5 g NaCl; 3 mL Extran 100%/1 L) produced by the insertion of each paw in the measurement tray. Each analysis was performed 3 times.
as §3

[11] = tested on: edema of paw induced by bradykinin; assay: edema of paw induced by bradykinin; format: in vivo, Wistar rats; settings: HOE 140 10 nmol/paw intraplant
Experimental: Wistar rats were stimulated through intraplant injection of 10 nmol/paw of bradykinin (BK) in one of the rear paws at the volume of 50 μL/paw (Henriques, 1991). In the counter-lateral paw was injected the same volume of vehicle (sterile saline free of pyrogens). The stimulus was performed in non-treated animals and in animals pre-treated through of an intraplant injection of 10 nmol/paw of antagonist to bradykinin HOE 140 at the volume of 50 μL. Thirty minutes after the stimulus, the edema was analyzed on the digital plethysmograph, through the displacement of fluid (0.5 g NaCl; 3 mL Extran 100%/1 L) produced by insertion of each paw in the measurement tray. Each analysis was performed 3 times.

Cc1nnc2n1-c1sc3c(c1C(c1ccccc1Cl)=NC2)CC(C(=O)N1CCOCC1)C3 (centres unmarked) [WEB 2170]
edema of paw induced by PAF [1]: inhibition of edema

O=C([O-])Cc1ccccc1Nc1c(Cl)cccc1Cl.[K+] [diclophenac, diclophenac of potassium]
edema of paw induced by carrageenin [2]: inhibition
edema of paw induced by zimosan [3]: inhibition
proteic overflow induced by carrageenin in pleural cavity [4]: able to significantly inhibit the proteic overflow induced by carrageenin

Cc1c(N(C)CS(=O)(=O)[O-])c(=O)n(-c2ccccc2)n1C.[Na+] [dipyrone]
hyperalgesia induced by carrageenin [5]: inhibition of hyperalgesia

CC(CN1c2ccccc2Sc2ccccc21)N(C)C (centres unmarked) [promethazine]
proteic overflow in pleurisis induced by histamine [6]: able to significantly inhibit the proteic overflow induced by histamine
ear edema induced by histamine [7]: able to significantly inhibit the edema induced by histamine
hyperalgesia induced by histamine [8]: inhibition of hyperalgesia
allergic edema of paw induced by egg albumin [9]: significantly inhibited; also recorded: inhibition of edema
edema of paw induced by histamine [10]: inhibited

HOE 140
edema of paw induced by bradykinin [11]: inhibition of edema
